The results in this text go back to US20220274997A1, “PIM KINASE INHIBITOR COMPOSITIONS AND USES THEREOF” (Snap Bio, Inc., priority 2019, published 2022).

Each structure is given as a SMILES string.

The target in one experiment is T1, PIM3 (Homo sapiens, UniProt Q86V86).
T1 construct: purchased SignalChem, Richmond, Canada P37-10BG
Description: LANCE Ultra kinase assay, PIM3. The experiment is classed as biochemical. The conditions noted are these: LANCE assay. The source says:
The second assay used was Perkin Elmer's LANCE® Ultra kinase assay which uses a ULight™-labeled peptide substrate and an appropriate Europium-labeled anti-phospho antibody. When the substrate becomes phosphorylated by a kinase of interest, the phosphorylated site on the substrate is recognized by the Europium-labeled anti-phospho antibody. […] The intensity of light emission is proportional to the level of ULight peptide phosphorylation. A kinase inhibitor reduces the FRET signal, thus providing an accurate and sensitive measure of inhibition potency.
The assay was performed in 384-well plates in two steps: PIM kinases were mixed with the ULight-substrate (CREBtide) in buffer and incubated for 10 min. Subsequently, ATP and molecules of the present disclosure were added in a kinase buffer at the appropriate concentration and the reactions were incubated for 1 hour, at room temperature in the dark. • After 1 h EDTA was added to stop the kinase reaction, Eu-W1024-labeled anti-phosphoserine-CREB (Ser133) Antibody (anti-phosphoCREBtide specific antibody) was added to the reaction in LANCE Detection buffer. The mixture was allowed to incubate for 30 min to allow binding of the antibody to the phosphorylated site before the plate was read using a Tecan microplate reader
Kinase Assay Buffer—50 mM HEPES pH7.0.1 mM EGTA, 10 mM MgCl2, 0.01% BRU-35.
The inhibitory activity of each compound against PIM kinases was measured with the LANCE® Ultra Kinase Assays by ChemDiv, Inc. (San Diego, Calif.).
Background: TR-FRET usually uses a lanthanide donor and a delayed reading to cut background.

The test system of the next experiment is Huh7. Description: CellTiter-Glo cancer cell growth inhibition, Huh7. The experiment is classed as cell-based. The following applies: Homo sapiens, Huh-7, 72 h. The text has this:
(§1) The CellTiter-Glo® Luminescent Cell Viability Assay is a sensitive homogeneous method to determine the number of viable cells in culture, Detection is based on using the luciferase reaction to measure the amount of ATP from viable cells. The amount of ATP in cells correlates with cell viability. Within minutes after a loss of membrane integrity, cells lose the ability to synthesize ATP, and endogenous ATPases destroy any remaining ATP; thus the levels of ATP fall precipitously. The CellTiter-Glo® Reagent does three things upon addition to cells. It lyses cell membranes to release ATP; it inhibits endogenous ATPases, and it provides luciferin, luciferase and other reagents necessary to measure ATP using a bioluminescent reaction. The unique properties of a proprietary stable luciferase.
All assays were performed by Reaction Biology Corporation (Malvern, Pa.) or ChemDiv, Inc. (San Diego, Calif.). All cell lines were purchased from American Type Culture Collection (ATCC, Manassas, Va.), except Huh 7 (RIKEN, Toyo, Japan) and HepaRG (Life Technologies, Carlsbad, Calif.).
Stock solutions ([…]) were diluted with cell culture media to produce 500× serial dilutions and […] of final compound dilutions were added to cells in assay plates to screen a series of 10 doses starting at […]. Final DMSO concentration was 0.2%. Assay plates are centrifuged at 100 rpm, 1 minute and kept at 37° C., 5% CO2, humidified atmosphere. […] Luminescence intensity was measured for each well using the Tecan M 1000 microplate reader after 5 min of incubation with CellTiter-Glo Reagent. The number of viable cells in culture was determined based on quantitation of the ATP present in each culture well. […] The EC50 curves were plotted and […] values were calculated using the GraphPad Prism 4 program based on a sigmoidal dose-response equation.
A general note: In ATP-based viability assays light output follows the ATP content of the culture.

In a further experiment the test system is DU-145. Description: CellTiter-Glo cancer cell growth inhibition, DU-145. The experiment is classed as cell-based. The conditions noted are these: Homo sapiens, DU-145, 72 h.
Source text: as §1, with “luciferase. There is a linear relationship (r2=0.99) between the luminescent signal and the number of cells from 0 to 50.000 cells per well.” for “luciferase.”
All assays were performed by Reaction Biology Corporation (Malvern, Pa.) or ChemDiv, Inc. (San Diego, Calif.). […]
Conditions: 37° C., air 95%; HEPA-filtered carbon dioxide (CO2) 5%, humidified atmosphere. • Cells were grown in 175 cm^2 flasks to 80-90% of confluency. • Culture media was aspirated and cell layer was briefly rinsed with Versen solution to remove all traces of serum. • 2 mL of accutase was added to cells. • Flasks were retuned to incubator for 5 min to allow cell detachment. • Add 6.0 mL of complete growth medium. • Single cell suspension was created by gently pipetting. • Cells were counted using a Hematocytometer and a suspension with the desired cell concentration was prepared. […]
Stock solutions ([…]) were diluted with cell culture media to produce 500× serial dilutions and […] of final compound dilutions were added to cells in assay plates to screen a series of 10 doses starting at 100 mM. […] Luminescence intensity was measured for each well using the Tecan M 1000 microplate reader after 5 min of incubation with CellTiter-Glo Reagent. The number of viable cells in culture was determined based on quantitation of the ATP present in each culture well. […]

As for `O=C1NC(=O)c2c1c1c3ccccc3[nH]c1c1c2c2cc(F)c(O)cc2n1CCN1CCOCC1` [Compound 19, 3-fluoro-2-hydroxy-13-(2-morpholin-4-ylethyl)-12,13-dihydro-5H-indolo[2,3-a]pyrrolo[3,4-c]carbazole-5,7(6H)-dione], the IC50 (in general, the concentration needed to halve the response being measured) at PIM3 (ATP 0.1 mM) is 1 nM; on PIM3 (ATP 1 mM) it was 4.3 nM. In addition, the EC50 (commonly the concentration that produces a half-maximal response) in the experiment with Huh7 worked out at 80 nM; in the experiment with DU-145 it was 40 nM.
`O=C1NC(=O)c2c1c1c3cc(F)c(O)cc3[nH]c1c1c2c2ccccc2n1CCN1CCOCC1` [Compound 18, 3-fluoro-2-hydroxy-12-(2-morpholin-4-ylethyl)-12,13-dihydro-5H-indolo[2,3-a]pyrrolo[3,4-c]carbazole-5,7(6H)-dione] displayed an IC50 on PIM3 (ATP 1 mM) of 9.5 nM. In addition, the EC50 with Huh7 and in the experiment with DU-145 was 41 nM throughout.
